The results in this text go back to US5510501A, “Saintopin derivatives” (Kyowa Hakko Kogyo, Co. Ltd., priority 1992, dated 1996).

The test system of one data set is HeLaS3 cells. Briefly: Anti-tumor activity against HeLaS3 cells (Neutral Red growth inhibition). The format is cell-based. The note with it: Homo sapiens, HeLa S3, 72 hours. As for the experimental part:
HeLaS3 cells (ATCC HTB22) were suspended in a medium comprising 10% fetal calf serum, 2 mM glutamine and MEM medium (produced by Nippon Pharmaceutical Co., Ltd.) (hereinafter referred to as medium A) to a concentration of 3×10^4 cells/ml. The cell suspension was put into wells of a 96-well microtiter plate in an amount of 0.1 ml per well. The cells in the plate were cultured at 37° C. for 20 hours in a CO2 -incubator. Subsequently, the test compound appropriately diluted with medium A was added to the wells in an amount of 0.1 ml/well. The cells were further cultured at 37° C. for 72 hours in the CO2 -incubator, and then the culture supernatant was removed. To the residue was added a medium comprising medium A and 0.02% Neutral Red in an amount of 0.1 ml per well, followed by culturing at 37° C. for one hour in the CO2 -incubator, whereby the cells were stained. After removal of the culture supernatant, the residue was washed once with physiological saline. The pigment was extracted with 0.001N hydrochloric acid/30% ethanol, and the absorbance at 550 nm was measured by using a microplate reader. The concentration of the test compound at which the growth of the cells is inhibited by 50% (IC50) was calculated by comparing the absorbance of untreated cells with those of the cells treated with the test compound at known concentrations.

The next data set is described as follows: Solubility. It is filed as physicochemical.
Data set [1] deals with Enterococcus faecium ATCC 10541. Briefly: Antibacterial activity, MIC by agar dilution method. It is filed as cell-based. The settings on record: ATCC10541, pH 7. As for the experimental part:
(§1) The antibacterial activity was determined by the agar dilution method using a medium (pH 7) which comprises 3 g/l Bacto-Tryptone (produced by Difco Laboratories), 3 g/l meat extract, 1 g/l yeast extract, 1 g/l glucose and 16 g/l agar.
In general terms: In agar dilution the substance is mixed into plates at graded concentrations.

Data set [2] relates to Staphylococcus aureus ATCC 6538P. The description is as above. The format is cell-based. The note with it: ATCC6538P, pH 7. As for the experimental part: as §1
In a further data set the test system is BALB 3T3/H-ras cells. Briefly: Growth inhibition against BALB 3T3/H-ras cells. It is filed as cell-based. The settings on record: Mus musculus, 72 hours, Neutral Red.

Structures are written as SMILES. Converted amounts (≈) assume the structure as drawn.

In the case of `O=C1c2cc(O)cc(O)c2C(=O)c2c1cc1cc(O)cc(OS(=O)(=O)O)c1c2O` [UCE 1022], in the data set with HeLaS3 cells, half-maximal inhibition (IC50) was put at 6.1 µM. Besides, the Solubility entry in “Solubility” (ethanol) is given as “Soluble”; in “Solubility” (methanol) it was “Soluble”; in the data set “Solubility” (n-hexane), “sparingly soluble”; in “Solubility” (water), “Soluble”. The MIC in data set [1] and in data set [2] was 0.52 µg/mL (≈ 1.24 µM) throughout.

Regarding `CC(=O)c1c(O)cc2cc3c(c(O)c2c1O)C(=O)c1c(O)cc(O)cc1C3=O` [Saintopin E], the IC50 (in general, the concentration that inhibits the measured activity by half) in the data set with BALB 3T3/H-ras cells was 2.4 µM. The Solubility entry is “Readily soluble” in “Solubility” (acetone); “soluble” in the data set “Solubility” (chloroform); “Readily soluble” in the data set “Solubility” (dimethyl sulfoxide (DMSO)); “soluble” in “Solubility” (ethyl acetate); “Readily soluble” in “Solubility” (methanol); “sparingly soluble” in “Solubility” (n-hexane). For the same molecule, in the data set “Solubility” (water), the Solubility result is given as “sparingly soluble”.

Regarding `O=C1c2cc(O)cc(O)c2C(=O)c2c1cc1cc(O)cc(O)c1c2O` [UCT 1003, reference compound], the Solubility result in the data set “Solubility” (water) is on record as “sparingly soluble”.
